The subject of one experiment is GP2D cells. Description: Cell proliferation assay (CellTiter-Glo), K-Ras G12D cells. It counts as cell-based. The note with it: GP2D cells (K-Ras G12D); read-out: Inhibition of GP2D Cells (IC50). The method in brief:
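CellTiter-Glo luminescence, taken roughly 5 days after dosing, measured growth of G12D-mutant GP2D cells in DMEM/2 mM glutamine/10% FBS. Compound dilution series (e.g., 9 points, 3-fold) added the day after plating. Four-parameter fitting gave IC50.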
(Cellular ATP, detected with luciferase, serves as a proxy for viable cell number.)

A further experiment has as its system A549 cells. In words: Cell proliferation assay (CellTiter-Glo), K-Ras G12S cells. In kind it is cell-based. The note with it: for IC50: Homo sapiens, A549, A549 cells (K-Ras G12S), read-out: Inhibition of A549 Cells (IC50); for ratio of IC50 against a G12D cell line to IC50 against a G12S cell line: K-Ras G12D cell line such as GP2D relative to K-Ras G12S cell line such as A549, greater than 1, 2, 3, 4, 5, 10, 15 or even greater, 8640 min. Put shortly: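 A549 cells (K-Ras G12S) in RPMI-1640 with 10% FBS, seeded in standard or ultra-low-attachment plates and dosed next day with a 10-point 3-fold series. Viability read about 6 days later by CellTiter-Glo luminescence. IC50 from four-parameter fit.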

In experiment [1] the target is T1, KRAS protein (His-tagged GDP-loaded G12S 1-169) (Homo sapiens, UniProt P01116, G12S).
T1 construct: His-tagged GDP-loaded G12S 1-169
In words: Covalent modification of KRAS protein, intact-protein LC-MS. The conditions noted are these: 24hrs at room temperature, KRAS protein ~2 µM. It counts as binding. The method in brief:
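Percent covalent modification derives from deconvoluted intact-mass intensities of compound-adducted versus unmodified KRAS, measured by LC-ESI-MS. Before analysis, ~2 µM GDP-loaded His-KRAS 1-169 was exposed to compound for 24 h at room temperature and acidified with formic acid.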

Where two headings read alike, the source gives them in different places. Some results are limits rather than exact numbers.

The values below come from patent EP4389751A1, “HETEROCYCLIC COMPOUNDS AND USES THEREOF” (Kumquat Biosciences Inc., priority 2021, dated 2024).

Regarding `N#Cc1c(N)sc2c(F)ccc(-c3c(Cl)cc4c(N5CC6(CCCCN(C(=O)n7cncn7)C6)C5)nc(OC[C@@]56CCCN5C[C@H](F)C6)nc4c3F)c12` [Compound A285, 4-(4-(6-(1H-1,2,4-triazole-1-carbonyl)-2,6-diazaspiro[3.6]decan-2-yl)-6-chloro-8-fluoro-2-(((2R,7aS)-2-fluorotetrahydro-1H-pyrrolizin-7a(5H)-yl)methoxy)quinazolin-7-yl)-2-amino-7-fluorobenzo[b]thiophene-3-carbonitrile], the IC50 in the experiment with GP2D cells was 1 to 10 µM; in the experiment with A549 cells (bin ≤ 500 nM) it was at most 0.5 µM. Moreover, the “% G12S Modification at 24 hr.” value in experiment [1] is “+++ (+++ indicates greater than 20% labelling)”.
Regarding `C#Cc1c(F)ccc2cc(O)cc(-c3ncc4c(N5CCOCC6(CN(C(=O)n7cnc(C)n7)C6)C5)nc(OC[C@@]56CCCN5C[C@H](F)C6)nc4c3F)c12` [Compound A298, (9-(7-(8-ethynyl-7-fluoro-3-hydroxynaphthalen-1-yl)-8-fluoro-2-(((2R,7aS)-2-fluorotetrahydro-1H-pyrrolizin-7a(5H)-yl)methoxy)pyrido[4,3-d]pyrimidin-4-yl)-6-oxa-2,9-diazaspiro[3.6]decan-2-yl)(3-methyl-1H-1,2,4-triazol-1-yl)methanone], the IC50 with GP2D cells was in the range of 1 to 10 µM; with A549 cells (bin 500 nM to 5 µM), 0.5 to 5 µM. Moreover, the “ratio of IC50 against a G12D cell line to IC50 against a G12S cell line” value in the experiment with A549 cells is “greater than 1”. In experiment [1], the “% G12S Modification at 24 hr.” value is “+++ (+++ indicates greater than 20% labelling)”.
For `Cc1ncn(C(=O)N2CC3CCN(c4nc(OC[C@@]56CCCN5C[C@H](F)C6)nc5c(F)c(-c6ccc(F)c7sc(N)c(C#N)c67)c(Cl)cc45)C3C2)n1` (stereo partly drawn) [Compound A304, 2-amino-4-(6-chloro-8-fluoro-2-(((2R,7aS)-2-fluorotetrahydro-1H-pyrrolizin-7a(5H)-yl)methoxy)-4-(5-(3-methyl-1 H-1,2,4-triazole-1-carbonyl)hexahydropyrrolo[3,4-b]pyrrol-1(2H)-yl)quinazolin-7-yl)-7-fluorobenzo[b]thiophene-3-carbonitrile], the half-maximal inhibitory concentration (IC50) in the experiment on GP2D cells is 1 to 10 µM; with A549 cells (bin ≤ 500 nM), at most 0.5 µM. Moreover, in the experiment on A549 cells, the “ratio of IC50 against a G12D cell line to IC50 against a G12S cell line” value was “greater than 1”. Further, the “% G12S Modification at 24 hr.” value in experiment [1] was “+++ (+++ indicates greater than 20% labelling)”.

For orientation: IC50 means the point on the concentration scale where inhibition reaches its midpoint.
